Measurements: ChEMBL document CHEMBL4680140, “Minor chemical modifications of the aminosteroid derivative RM-581 lead to major impact on its anticancer activity, metabolic stability and aqueous solubility” (Eur J Med Chem, 2020)
Values after ≈ are worked out from the molar mass of the structure shown. Active and inactive are the calls of the source. The calls are words filed in the database; no cut-off is given here.

Experiments:
[1] = Solubility of compound in PBS at pH 7.4 at 300 uM after 24 hrs by HPLC-UV analysis; format: physicochemical
[2] = test system: LAPC4; assay: Antiproliferative activity against human LAPC4 cells assessed as reduction in cell viability after 72 hrs by MTS assay; format: functional, cell-based; settings: LAPC4, 72 h
[3] = test system: SK-OV-3; assay: Antiproliferative activity against human SK-OV-3 cells assessed as reduction in cell viability at 1 to 5 uM after 72 hrs by MTS assay; format: functional, cell-based; settings: dose 1-5 µM
[4] = test system: OVCAR-3; assay: Antiproliferative activity against human OVCAR-3 cells assessed as reduction in cell viability at 1 to 5 uM after 72 hrs by MTS assay; format: functional, cell-based; settings: dose 1-5 µM
[5] = test system: OVCAR-3; assay: Antiproliferative activity against human OVCAR-3 cells assessed as reduction in cell viability after 72 hrs by MTS assay; format: functional, cell-based; settings: OVCAR-3, 72 h
[6] = test system: PANC-1; assay: Antiproliferative activity against human PANC-1 cells assessed as reduction in cell viability at 1 to 5 uM after 72 hrs by MTS assay; format: functional, cell-based; settings: dose 1-5 µM
[7] = test system: Hs 766; assay: Antiproliferative activity against human Hs 766 cells assessed as reduction in cell viability at 1 to 5 uM after 72 hrs by MTS assay; format: functional, cell-based; settings: dose 1-5 µM
[8] = test system: MCF7; assay: Antiproliferative activity against human MCF7 cells assessed as reduction in cell viability at 1 to 5 uM after 72 hrs by MTS assay; format: functional, cell-based; settings: dose 1-5 µM
[9] = test system: Caov-3 cell line; assay: Antiproliferative activity against human Caov-3 cells assessed as reduction in cell viability at 1 to 5 uM after 72 hrs by MTS assay; format: functional, cell-based; settings: dose 1-5 µM
[10] = Stability in human liver s9 fraction assessed as parent compound remaining at 10 uM after 1 hr by LC-MS analysis; format: ADME, subcellular; settings: read-out: Stabilty
[11] = test system: LNCaP; assay: Antiproliferative activity against human LNCaP cells assessed as reduction in cell viability after 72 hrs by MTS assay; format: functional, cell-based
[12] = test system: T47D; assay: Antiproliferative activity against human T47D cells assessed as reduction in cell viability after 72 hrs by MTS assay; format: functional, cell-based
[13] = test system: MCF7; assay: Antiproliferative activity against human MCF7 cells assessed as reduction in cell viability after 72 hrs by MTS assay; format: functional, cell-based; settings: MCF7, 72 h
[14] = test system: BXPC-3; assay: Antiproliferative activity against human BXPC-3 cells assessed as reduction in cell viability at 1 to 5 uM after 72 hrs by MTS assay; format: functional, cell-based; settings: dose 1-5 µM
[15] = test system: PANC-1; assay: Antiproliferative activity against human PANC-1 cells assessed as reduction in cell viability after 72 hrs by MTS assay; format: functional, cell-based; settings: PANC-1, 72 h
[16] = test system: PC-3; assay: Antiproliferative activity against human PC-3 cells assessed as reduction in cell viability after 72 hrs by MTS assay; format: functional, cell-based; settings: PC-3, 72 h
[17] = test system: T47D; assay: Antiproliferative activity against human T47D cells assessed as reduction in cell viability at 1 to 5 uM after 72 hrs by MTS assay; format: functional, cell-based; settings: dose 1-5 µM
[18] = test system: LAPC4; assay: Antiproliferative activity against human LAPC4 cells assessed as reduction in cell viability at 1 to 5 uM after 72 hrs by MTS assay; format: functional, cell-based; settings: dose 1-5 µM
[19] = Solubility of compound in PBS at pH 7.4 at pH 7.4 HPLC analysis; format: physicochemical

SMILES | solubility at 24 h, 300 µM [1] | IC50 [2] | Activity [3] | Activity [4] | IC50 [5] | Activity [6] | Activity [7] | Activity [8] | Activity [9] | remaining at 1 h, 10 µM [10] | IC50 [11] | IC50 [12] | IC50 [13] | Activity [14] | IC50 [15] | IC50 [16] | Activity [17] | Activity [18] | solubility [19]
C#C[C@]1(O)CC[C@H]2[C@@H]3CC[C@H]4C[C@H](O)[C@@H](N5CCN(C(=O)[C@@H]6CCCN6C(=O)c6ccc7ccccc7n6)CC5)C[C@]4(C)[C@H]3CC[C@@]21C | 9 µg/mL (≈ 13.8 µM) |  |  |  |  |  |  |  |  |  |  |  |  |  |  |  |  |  | 
C#C[C@]1(O)CC[C@H]2[C@@H]3CCc4cc(OC)c(N5CCN(C(=O)[C@@H]6CCCN6C(=O)c6ccc7ccccc7n6)CC5)cc4[C@H]3CC[C@@]21C | 2 µg/mL (≈ 3.09 µM) | 0.6 µM | Active | Active | 5 µM | Active | Active | Active | Active | 35% | 1.2 µM | 0.5 µM | 2.6 µM | Active | 3.9 µM | 1.6 µM | Active | Active | 
C#C[C@]1(O)CC[C@H]2[C@@H]3CCc4cc(OC)c(CN5CCN(C(=O)[C@@H]6CCCN6C(=O)c6ccc7ccccc7n6)CC5)cc4[C@H]3CC[C@@]21C |  | 0.7 µM | Active | Active | 5 µM | Active | Active | Active | Active | 76% | 1.3 µM | 0.4 µM | 2.3 µM | Active | 2.6 µM | 1.7 µM | Active | Active | 
C#C[C@]1(O)CC[C@H]2[C@@H]3CCc4cc(C(C)=O)c(N5CCN(C(=O)[C@@H]6CCCN6C(=O)c6ccc7ccccc7n6)CC5)cc4[C@H]3CC[C@@]21C |  |  | inactive | inactive |  | inactive | inactive | inactive | inactive | 52% |  |  |  | inactive |  |  | inactive | inactive | 
C#C[C@]1(O)CC[C@H]2[C@@H]3CCc4cc(OC)c(C(=O)N5CCN(C(=O)[C@@H]6CCCN6C(=O)c6ccc7ccccc7n6)CC5)cc4[C@H]3CC[C@@]21C |  | 0.5 µM | Active | Active | 5.2 µM | Active | Active | Active | Active | 52% | 0.8 µM | 0.3 µM | 2.2 µM | Active | 3.5 µM | 1.7 µM | Active | Active | 
C#Cc1cc2c(cc1N1CCN(C(=O)[C@@H]3CCCN3C(=O)c3ccc4ccccc4n3)CC1)[C@H]1CC[C@@]3(C)[C@@H](CC[C@@]3(O)C#C)[C@@H]1CC2 |  |  |  |  |  |  |  |  |  | 52% |  |  |  |  |  |  |  |  | 
CC(=O)O[C@H]1C(=O)[C@@]2(C)[C@H]([C@H](OC(=O)c3ccccc3)[C@]3(O)C[C@H](OC(=O)[C@H](O)[C@@H](NC(=O)c4ccccc4)c4ccccc4)C(C)=C1C3(C)C)[C@]1(OC(C)=O)CO[C@@H]1C[C@@H]2O |  |  |  |  |  |  |  |  |  |  |  |  |  |  |  |  | Active |  | 
CCc1c2c(nc3ccc(OC(=O)N4CCC(N5CCCCC5)CC4)cc13)-c1cc3c(c(=O)n1C2)COC(=O)[C@]3(O)CC |  |  |  |  |  |  |  |  |  |  |  |  |  |  |  |  | Active |  | 
Nc1ccn([C@@H]2O[C@H](CO)[C@@H](O)C2(F)F)c(=O)n1 |  |  |  |  |  |  |  |  |  |  |  |  |  |  |  |  | Active |  | 
O=c1[nH]cc(F)c(=O)[nH]1 |  |  |  |  |  |  |  |  |  |  |  |  |  |  |  |  | Active |  | 
C#CC1(O)CC[C@H]2[C@@H]3CCc4cc(OC(=O)N(C)C)c(N5CCN(C(=O)[C@@H]6CCCN6C(=O)c6ccc7ccccc7n6)CC5)cc4[C@H]3CC[C@@]21C (single isomer, unassigned) |  |  | inactive | inactive |  | inactive | inactive | inactive | inactive | 52% |  |  |  | inactive |  |  | inactive | inactive | 
C#CC1(O)CC[C@H]2[C@@H]3CCc4cc(OC(C)=O)c(N5CCN(C(=O)[C@@H]6CCCN6C(=O)c6ccc7ccccc7n6)CC5)cc4[C@H]3CC[C@@]21C (single isomer, unassigned) |  | 0.5 µM | Active | Active | 3.9 µM | Active | Active | Active | Active | 76% | 0.8 µM | 0.4 µM | 1.4 µM | Active | 2.8 µM | 1.4 µM | Active | Active | 
C#CC1(O)CC[C@H]2[C@@H]3CCc4cc(OC(=O)N(CC)CC)c(N5CCN(C(=O)[C@@H]6CCCN6C(=O)c6ccc7ccccc7n6)CC5)cc4[C@H]3CC[C@@]21C (single isomer, unassigned) |  |  | inactive | inactive |  | inactive | inactive | inactive | inactive | 52% |  |  |  | inactive |  |  | inactive | inactive | 
C#CC1(O)CC[C@H]2[C@@H]3CCc4ccc(N5CCN(C(=O)[C@@H]6CCCN6C(=O)c6ccc7ccccc7n6)CC5)cc4[C@H]3CC[C@@]21C (single isomer, unassigned) |  |  | inactive | inactive |  | inactive | inactive | inactive | inactive | 35% |  |  |  | inactive |  |  | inactive | inactive | 
C#CC1(O)CC[C@H]2[C@@H]3CCc4cc(C(C)O)c(N5CCN(C(=O)[C@@H]6CCCN6C(=O)c6ccc7ccccc7n6)CC5)cc4[C@H]3CC[C@@]21C (single isomer, unassigned) |  |  | inactive | inactive |  | inactive | inactive | inactive | inactive | 35% |  |  |  | inactive |  |  | inactive | inactive | 
C#CC1(O)CC[C@H]2[C@@H]3CCc4cc(OS(N)(=O)=O)c(N5CCN(C(=O)[C@@H]6CCCN6C(=O)c6ccc7ccccc7n6)CC5)cc4[C@H]3CC[C@@]21C (single isomer, unassigned) |  | 0.3 µM | Active | Active | 3.1 µM | Active | Active | Active | Active | 35% | 0.9 µM | 0.2 µM | 1.2 µM | Active | 3 µM | 1.6 µM | Active | Active | 
C#CC1(O)CC[C@H]2[C@@H]3CCc4cc(O)c(N5CCN(C(=O)[C@@H]6CCCN6C(=O)c6ccc7ccccc7n6)CC5)cc4[C@H]3CC[C@@]21C (single isomer, unassigned) |  | 0.4 µM | Active | Active | 4.4 µM | Active | Active | Active | Active | 35% | 1.1 µM | 0.5 µM | 1.4 µM | Active | 3.1 µM | 1.4 µM | Active | Active | 
C#CC1(O)CC[C@H]2[C@@H]3CCc4cc(OP(=O)(O)O)c(N5CCN(C(=O)[C@@H]6CCCN6C(=O)c6ccc7ccccc7n6)CC5)cc4[C@H]3CC[C@@]21C (single isomer, unassigned) | > 720 µg/mL | 0.3 µM | Active | Active | 4.6 µM | Active | Active | Active | Active | 52% | 0.6 µM | 0.3 µM | 1.5 µM | Active | 2.6 µM | 1.3 µM | Active | Active | 
CCCSc1ccc2nc(NC(=O)OC)[nH]c2c1 [ALBENDAZOLE] | 0.52 µg/mL (≈ 1.96 µM) |  |  |  |  |  |  |  |  |  |  |  |  |  |  |  |  |  | 0.74 µg/mL (≈ 2.79 µM)
